Experimental data from ChEMBL document CHEMBL6092162, “Identification of novel and potent triazoles targeting CYP51 for antifungal: Design, synthesis, and biological study” (Eur J Med Chem, 2024).
Converted amounts (≈) assume the structure as drawn. The source made the active and inactive calls. The calls are words filed in the database; no cut-off is given here.

Columns and labels:
Candida albicans [1] = test: Effect on sterol composition in Candida albicans SC5314 assessed as 14alpha-demethyllanosterol content at 0.0625 microg/ml measured after 16 hrs by GC-MS analysis (reference value: 1.98 %); format: functional; settings: dose 0.0625 µg/ml
Candida albicans [2] = test: Selectivity ratio of MFC for fungicidal activity against Candida albicans SC5314 to MIC80 for antifungal activity against Candida albicans SC5314; format: functional
Candida tropicalis = test: Antifungal activity against Candida tropicalis GIM 2.183 assessed as inhibition of fungal growth by CLSI M27-A3 guidelines based method; format: functional
[3] = Oral bioavailability in Sprague-Dawley rat at 10 mg/kg by LC-MS/MS analysis; format: ADME, organism-based; settings: in vivo
Candida albicans [4] = test: Antifungal activity against Candida albicans SC5314 assessed as inhibition of fungal growth by CLSI M27-A3 guidelines based method; format: functional
[5] = AUC (0 to t) in Sprague-Dawley rat at 3 mg/kg, iv by LC-MS/MS analysis; format: ADME, organism-based; settings: in vivo
Candida albicans [6] = test: Antifungal activity against fluconazole-resistant Candida albicans clinical isolate 100 assessed as inhibition of fungal growth by CLSI M27-A3 guidelines based method; format: functional
[7] = Half-life in Sprague-Dawley rat at 10 mg/kg, po by LC-MS/MS analysis; format: ADME, organism-based; settings: in vivo
[8] = MRT (0 to t) in Sprague-Dawley rat at 10 mg/kg, po by LC-MS/MS analysis; format: ADME, organism-based; settings: in vivo
Candida albicans [9] = test: Effect on sterol composition in Candida albicans SC5314 assessed as other sterols content at 0.0625 microg/ml measured after 16 hrs by GC-MS analysis (reference value: 1.06 %); format: functional; settings: dose 0.0625 µg/ml
[10] = Selectivity index, ratio of IC50 for HEK293T cells to MIC80 for Candida albicans SC5314; format: toxicity, cell-based; settings: human, HEK293T cells versus Candida albicans SC5314; read-out: Selectivity Index
Candida parapsilosis = test: Antifungal activity against Candida parapsilosis GIM 2.190 assessed as inhibition of fungal growth by CLSI M27-A3 guidelines based method; format: functional; settings: Lodderomyces parapsilosis
Candida albicans [11] = test: Fungicidal activity against Candida albicans SC5314 incubated for 48 hrs by SDA plate based method; format: functional
[12] = Half-life in Sprague-Dawley rat at 3 mg/kg, iv by LC-MS/MS analysis; format: ADME, organism-based; settings: in vivo
Candida albicans [13] = test: Fungicidal activity fluconazole and iodiconazole resistant Candida albicans clinical isolate 17# assessed as reduction in viable colony count at 0.5 microg/ml measured within 24 hrs by time-kill kinetics assay; format: functional, organism-based; settings: dose 0.5 µg/ml
Candida albicans [14] = test: Antibiofilm activity against Candida albicans CPCC400616 assessed as inhibition of morphological transformation by measuring disappearance of mycelium at 2 microg/ml incubated for 4 hrs by microscopic photograph analysis; format: functional, organism-based; settings: dose 2.0 µg/ml
Candida albicans [15] = test: Antibiofilm activity against fluconazole-resistant Candida albicans CPCC400616 assessed as inhibition of metabolic activity of biofilm measured after 48 hrs by XTT reduction assay; format: functional
Candida albicans [16] = test: Effect on sterol composition in Candida albicans SC5314 assessed as obtusifoliol content at 0.0625 microg/ml measured after 16 hrs by GC-MS analysis relative to control; format: functional; settings: dose 0.0625 µg/ml
Candida albicans [17] = test: Effect on sterol composition in Candida albicans SC5314 assessed as ergosterol content at 0.0625 microg/ml measured after 16 hrs by GC-MS analysis (reference value: 96.96 %); format: functional; settings: dose 0.0625 µg/ml
Candida albicans [18] = test: Antibiofilm activity against fluconazole-resistant Candida albicans CPCC400616 assessed as inhibition of metabolic activity of biofilm measured after 24 hrs by XTT reduction assay; format: functional
Candida albicans [19] = test: Fungicidal activity fluconazole and iodiconazole resistant Candida albicans clinical isolate 17# assessed as reduction in viable colony count measured for 24 hrs by time-kill kinetics assay; format: functional, organism-based
[20] = Tmax in Sprague-Dawley rat at 3 mg/kg, iv by LC-MS/MS analysis; format: ADME, organism-based; settings: in vivo
[21] = Tmax in Sprague-Dawley rat at 10 mg/kg, po by LC-MS/MS analysis; format: ADME, organism-based; settings: in vivo
Pichia kudriavzevii = test: Antifungal activity against Candida krusei GIM 2.1 assessed as inhibition of fungal growth by CLSI M27-A3 guidelines based method; format: functional
[22] = Cmax in Sprague-Dawley rat at 10 mg/kg, po by LC-MS/MS analysis; format: ADME, organism-based; settings: in vivo
Candida albicans [23] = test: Effect on sterol composition in Candida albicans SC5314 assessed as lanosterol content at 0.0625 microg/ml measured after 16 hrs by GC-MS analysis relative to control; format: functional; settings: dose 0.0625 µg/ml
[24] = MRT(0 to t) in Sprague-Dawley rat at 3 mg/kg, iv by LC-MS/MS analysis; format: ADME, organism-based; settings: in vivo
Candida albicans [25] = test: Selectivity ratio of MFC for fungicidal activity against fluconazole and iodiconazole resistant Candida albicans clinical isolate 17# to MIC80 for antifungal activity against fluconazole and iodiconazole resistant Candida albicans clinical isolate 17#; format: functional
[26] = Cytotoxicity against HEK293T cells assessed as inhibition of cell growth incubated for 72 hrs by MTT assay; format: toxicity, cell-based, HEK-293T; settings: human
[27] = AUC (0 to t) in Sprague-Dawley rat at 10 mg/kg, po by LC-MS/MS analysis; format: ADME, organism-based; settings: in vivo
Candida albicans [28] = test: Fungicidal activity against fluconazole and iodiconazole resistant Candida albicans clinical isolate 17# incubated for 48 hrs by SDA plate based method; format: functional
[29] = Cmax in Sprague-Dawley rat at 3 mg/kg, iv by LC-MS/MS analysis; format: ADME, organism-based; settings: in vivo
[30] = Cytotoxicity against HUVEC cells assessed as inhibition of cell growth incubated for 72 hrs by MTT assay; format: toxicity, cell-based; settings: human
Candida albicans [31] = test: Antifungal activity against fluconazole-resistant Candida albicans clinical isolate 632 assessed as inhibition of fungal growth by CLSI M27-A3 guidelines based method; format: functional
[32] = Apparent volume of distribution in Sprague-Dawley rat at 3 mg/kg, iv by LC-MS/MS analysis; format: ADME, organism-based; settings: in vivo
Nakaseomyces glabratus = test: Antifungal activity against Candida glabrata assessed as inhibition of fungal growth by CLSI M27-A3 guidelines based method; format: functional
Candida albicans [33] = test: Antifungal activity against fluconazole-resistant Candida albicans clinical isolate 901 assessed as inhibition of fungal growth by CLSI M27-A3 guidelines based method; format: functional
Candida albicans [34] = test: Antifungal activity against fluconazole-resistant Candida albicans CaR assessed as inhibition of fungal growth by CLSI M27-A3 guidelines based method; format: functional
Candida albicans [35] = test: Antifungal activity against fluconazole-resistant Candida albicans clinical isolate 103 assessed as inhibition of fungal growth by CLSI M27-A3 guidelines based method; format: functional
Candida albicans [36] = test: Antifungal activity against fluconazole-resistant Candida albicans clinical isolate 311 assessed as inhibition of fungal growth by CLSI M27-A3 guidelines based method; format: functional
Candida albicans [37] = test: Antifungal activity against fluconazole and iodiconazole resistant Candida albicans clinical isolate 17# assessed as inhibition of fungal growth by CLSI M27-A3 guidelines based method; format: functional
Candida albicans [38] = test: Effect on sterol composition in Candida albicans SC5314 assessed as eburicol content at 0.0625 microg/ml measured after 16 hrs by GC-MS analysis relative to control; format: functional; settings: dose 0.0625 µg/ml
[39] = Cytotoxicity against human OVCAR-3 cells assessed as inhibition of cell growth incubated for 72 hrs by MTT assay; format: toxicity, cell-based
Candida albicans [40] = test: Antifungal activity against Candida albicans GIM 2.194 assessed as inhibition of fungal growth by CLSI M27-A3 guidelines based method; format: functional
Candida albicans [41] = test: Antibiofilm activity against fluconazole-resistant Candida albicans CPCC400616 assessed as inhibition of metabolic activity of biofilm measured after 6 hrs by XTT reduction assay; format: functional
Candida albicans [42] = test: Antifungal activity against fluconazole-resistant Candida albicans clinical isolate 904 assessed as inhibition of fungal growth by CLSI M27-A3 guidelines based method; format: functional
[43] = Cytotoxicity against human NCI-H460 cells assessed as inhibition of cell growth incubated for 72 hrs by MTT assay; format: toxicity, cell-based

CN(Cc1ccc(N2CCN(Cc3ccc(F)cc3Br)CC2)cc1)CC(O)(Cn1cncn1)c1ccc(F)cc1F (configuration not stated)
Activity (Candida albicans [1]): 2.78% | Selectivity ratio (Candida albicans [2]): 5 | MIC80 (Candida tropicalis): 0.006 µg/mL (≈ 0.00953 µM) | bioavailability [3]: 1.66% | MIC80 (Candida albicans [4]): 0.006 µg/mL (≈ 0.00953 µM) | AUCt [5]: 324 ng·h/mL | MIC80 (Candida albicans [6]): 2 µg/mL (≈ 3.18 µM) | half-life [7]: 1.12 h | MRT last [8]: 1.12 h | Activity (Candida albicans [9]): 4.47% | Selectivity ratio [10]: 798 | MIC80 (Candida parapsilosis): 0.006 µg/mL (≈ 0.00953 µM) | MFC (Candida albicans [11]): 0.031 µg/mL (≈ 0.0492 µM) | t1/2 [12]: 0.37 h | Activity (Candida albicans [13]): Active | Activity (Candida albicans [14]): Active | MIC50 (Candida albicans [15]): 8 µg/mL (≈ 12.7 µM) | Activity (Candida albicans [16]): 14.81% | Activity (Candida albicans [17]): 1.83% | MIC50 (Candida albicans [18]): 2 µg/mL (≈ 3.18 µM) | Activity (Candida albicans [19]): Dose-dependent-effect; Much More Effective Than Iodiconazole | Tmax [20]: 4.98 min | Tmax [21]: 1 h | MIC80 (Pichia kudriavzevii): 0.1 µg/mL (≈ 0.159 µM) | Cmax [22]: 10.6 ng/mL | Activity (Candida albicans [23]): 10.55% | MRT last [24]: 0.478 h | Selectivity ratio (Candida albicans [25]): 1 | IC50 at 72 h [26]: 4.99 µM | AUC(0-t) [27]: 14.4 ng·h/mL | MFC (Candida albicans [28]): 0.063 µg/mL (≈ 0.1 µM) | Cmax [29]: 535 ng/mL | IC50 at 72 h [30]: > 10 µM | MIC80 (Candida albicans [31]): 8 µg/mL (≈ 12.7 µM) | Vz [32]: 4.89 L/kg | MIC80 (Nakaseomyces glabratus): 0.1 µg/mL (≈ 0.159 µM) | MIC80 (Candida albicans [33]): > 64 µg/mL | MIC80 (Candida albicans [34]): 0.063 µg/mL (≈ 0.1 µM) | MIC80 (Candida albicans [35]): 4 µg/mL (≈ 6.35 µM) | MIC80 (Candida albicans [36]): 8 µg/mL (≈ 12.7 µM) | MIC80 (Candida albicans [37]): 0.063 µg/mL (≈ 0.1 µM) | Activity (Candida albicans [38]): 65.56% | IC50 at 72 h [39]: 7.72 µM | MIC80 (Candida albicans [40]): 0.013 µg/mL (≈ 0.0207 µM) | MIC50 (Candida albicans [41]): 0.5 µg/mL (≈ 0.794 µM) | MIC80 (Candida albicans [42]): 8 µg/mL (≈ 12.7 µM) | IC50 at 72 h [43]: 5.22 µM
